The source made the active and inactive calls.
Assays:
HEK293 [1] = assay: inhibition of NOD1-driven NF-kB reporter – cell-based, luminescence, uHTS, primary screen (AID 1578); type: functional; settings: Homo sapiens
[2] = target: DNA damage-inducible transcript 3 protein (Mus musculus, UniProt P35639); type: functional, Cricetulus griseus
X-box-binding protein 1 = target: T1, X-box-binding protein 1 (Homo sapiens, UniProt P17861); type: functional, Cricetulus griseus;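 also: confirmatory dose-response counter-screen serving a CHOP assay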
T1 sequence (P17861 whole entry): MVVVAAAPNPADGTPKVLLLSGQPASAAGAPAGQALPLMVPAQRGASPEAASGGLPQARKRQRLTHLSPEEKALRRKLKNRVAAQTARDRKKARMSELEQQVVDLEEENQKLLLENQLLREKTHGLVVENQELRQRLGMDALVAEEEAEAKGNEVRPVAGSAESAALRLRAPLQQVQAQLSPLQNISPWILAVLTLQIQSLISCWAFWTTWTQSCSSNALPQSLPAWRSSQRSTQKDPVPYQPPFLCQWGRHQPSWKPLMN

HEK293 [3] = assay: cells; type: functional, cell-based; settings: Homo sapiens
HEK293 [4] = assay: NOD2 signaling inhibitors in MDP-stimulated cells, cell-based, uHTS, luminescence (AID 2001); type: functional; settings: Homo sapiens
HEK293 [5] = assay: cells; type: functional, cell-based; settings: Homo sapiens; remark: listed apart in the source
Ion channel NompC = Ion channel NompC (Danio rerio, UniProt Q7T1G6); assay: Dose response cell-based high-throughput screening assay for agonists of the transient receptor potential channel N1 (TRPN1). [Related pubchem assays (depositor defined):AID1424, AID1448]; type: functional
Mucolipin-3 = target: T2, Mucolipin-3 (Homo sapiens, UniProt Q8TDD5); assay: Fluorescence counterscreen assay for […] agonists: dose response cell-based high-throughput screening assay to identify agonists of the transient receptor potential channel ML3 (TRPML3). [Related pubchem assays: 1424, 1448 ]; type: functional
T2 sequence (Q8TDD5 whole entry): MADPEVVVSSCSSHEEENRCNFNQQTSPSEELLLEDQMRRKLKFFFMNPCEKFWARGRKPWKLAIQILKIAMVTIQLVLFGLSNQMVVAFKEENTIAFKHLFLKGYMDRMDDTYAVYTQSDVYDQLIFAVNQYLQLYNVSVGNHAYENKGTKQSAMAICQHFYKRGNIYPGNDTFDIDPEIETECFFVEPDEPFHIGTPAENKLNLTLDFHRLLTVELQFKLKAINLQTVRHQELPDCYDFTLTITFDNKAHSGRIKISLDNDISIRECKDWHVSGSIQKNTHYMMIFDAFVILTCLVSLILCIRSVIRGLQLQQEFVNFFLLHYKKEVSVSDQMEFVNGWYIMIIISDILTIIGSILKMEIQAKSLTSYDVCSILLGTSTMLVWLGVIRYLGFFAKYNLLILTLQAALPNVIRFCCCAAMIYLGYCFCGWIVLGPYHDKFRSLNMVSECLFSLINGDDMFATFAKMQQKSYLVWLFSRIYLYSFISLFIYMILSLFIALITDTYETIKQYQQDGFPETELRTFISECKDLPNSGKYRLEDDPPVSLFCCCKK

[6] = microbe, parasite or virus in culture; type: functional; settings: Mycobacterium tuberculosis
[7] = target: T3, Mannose-6-phosphate isomerase (Homo sapiens, UniProt P34949); assay: phosphomannose isomerase inhibition – biochemical, fluorescence intensity, confirmation (AID 1535)
T3 sequence (P34949 whole entry): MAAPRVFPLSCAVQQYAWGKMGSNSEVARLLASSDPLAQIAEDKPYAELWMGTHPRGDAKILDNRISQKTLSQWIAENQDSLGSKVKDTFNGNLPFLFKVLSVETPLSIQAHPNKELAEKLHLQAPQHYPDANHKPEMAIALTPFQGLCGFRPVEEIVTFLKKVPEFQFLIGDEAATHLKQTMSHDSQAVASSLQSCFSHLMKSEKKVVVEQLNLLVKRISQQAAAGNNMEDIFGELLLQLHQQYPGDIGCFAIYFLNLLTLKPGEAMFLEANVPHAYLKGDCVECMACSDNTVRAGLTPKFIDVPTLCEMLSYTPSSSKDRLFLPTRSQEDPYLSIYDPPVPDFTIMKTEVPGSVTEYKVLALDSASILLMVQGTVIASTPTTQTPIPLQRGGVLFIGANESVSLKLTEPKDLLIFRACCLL

Phosphomannomutase 2 = Phosphomannomutase 2 (Homo sapiens, UniProt O15305); assay: Counter screen SAR assay for PMM2 inhibitors via a fluorescence intensity assay. [Related pubchem assays (depositor defined):AID1545, AID1574]
Troponin, cardiac muscle = Troponin, cardiac muscle (Homo sapiens, UniProt P19429+P45379+P63316); assay: Fluorescence-based biochemical high throughput dose response assay for activators of the calcium sensitivity of cardiac Regulated Thin Filaments (RTF). [Related pubchem assays (depositor defined):AID493008, AID493018, AID504382, AID504383]; type: protein-complex assay
[8] = target: T4, Replicative DNA helicase DnaB (Mycobacterium tuberculosis, UniProt P9WMR3); assay: DnaB intein splicing inhibitors, dose response, biochemical, cell-free fluorescence (AID 449749); type: functional
T4 sequence (P9WMR3 whole entry): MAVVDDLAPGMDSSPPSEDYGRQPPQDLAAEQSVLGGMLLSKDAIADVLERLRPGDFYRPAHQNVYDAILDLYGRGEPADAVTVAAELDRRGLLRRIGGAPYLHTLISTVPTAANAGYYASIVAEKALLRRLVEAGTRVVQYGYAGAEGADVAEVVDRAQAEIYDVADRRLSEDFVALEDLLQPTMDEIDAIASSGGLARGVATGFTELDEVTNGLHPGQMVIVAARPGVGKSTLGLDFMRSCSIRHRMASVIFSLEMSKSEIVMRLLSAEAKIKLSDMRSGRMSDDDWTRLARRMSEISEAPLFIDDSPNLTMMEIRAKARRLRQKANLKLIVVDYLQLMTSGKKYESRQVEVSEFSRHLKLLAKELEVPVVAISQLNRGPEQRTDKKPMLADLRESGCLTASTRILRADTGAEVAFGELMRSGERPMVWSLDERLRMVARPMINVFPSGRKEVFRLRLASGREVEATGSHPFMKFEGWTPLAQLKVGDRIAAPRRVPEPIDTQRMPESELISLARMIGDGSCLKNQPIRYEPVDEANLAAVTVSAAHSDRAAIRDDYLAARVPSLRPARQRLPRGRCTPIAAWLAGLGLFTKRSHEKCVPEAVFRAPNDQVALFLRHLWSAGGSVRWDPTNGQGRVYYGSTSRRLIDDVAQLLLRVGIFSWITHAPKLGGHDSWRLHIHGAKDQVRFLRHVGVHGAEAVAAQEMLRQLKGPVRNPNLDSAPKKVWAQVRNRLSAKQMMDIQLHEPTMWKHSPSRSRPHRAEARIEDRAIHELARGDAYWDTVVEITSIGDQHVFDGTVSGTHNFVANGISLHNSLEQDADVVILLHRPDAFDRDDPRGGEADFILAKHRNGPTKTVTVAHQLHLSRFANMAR

Protein RecA = target: T5, Protein RecA (Mycobacterium tuberculosis, UniProt P9WHJ3); assay: Fluorescence Cell-Free Homogeneous Dose Retest to Identify Inhibitors of RecA-Intein Splicing Activity. [Related pubchem assays (depositor defined):AID2097, AID2223, AID489010, AID492950]; type: functional
T5 sequence (P9WHJ3 whole entry): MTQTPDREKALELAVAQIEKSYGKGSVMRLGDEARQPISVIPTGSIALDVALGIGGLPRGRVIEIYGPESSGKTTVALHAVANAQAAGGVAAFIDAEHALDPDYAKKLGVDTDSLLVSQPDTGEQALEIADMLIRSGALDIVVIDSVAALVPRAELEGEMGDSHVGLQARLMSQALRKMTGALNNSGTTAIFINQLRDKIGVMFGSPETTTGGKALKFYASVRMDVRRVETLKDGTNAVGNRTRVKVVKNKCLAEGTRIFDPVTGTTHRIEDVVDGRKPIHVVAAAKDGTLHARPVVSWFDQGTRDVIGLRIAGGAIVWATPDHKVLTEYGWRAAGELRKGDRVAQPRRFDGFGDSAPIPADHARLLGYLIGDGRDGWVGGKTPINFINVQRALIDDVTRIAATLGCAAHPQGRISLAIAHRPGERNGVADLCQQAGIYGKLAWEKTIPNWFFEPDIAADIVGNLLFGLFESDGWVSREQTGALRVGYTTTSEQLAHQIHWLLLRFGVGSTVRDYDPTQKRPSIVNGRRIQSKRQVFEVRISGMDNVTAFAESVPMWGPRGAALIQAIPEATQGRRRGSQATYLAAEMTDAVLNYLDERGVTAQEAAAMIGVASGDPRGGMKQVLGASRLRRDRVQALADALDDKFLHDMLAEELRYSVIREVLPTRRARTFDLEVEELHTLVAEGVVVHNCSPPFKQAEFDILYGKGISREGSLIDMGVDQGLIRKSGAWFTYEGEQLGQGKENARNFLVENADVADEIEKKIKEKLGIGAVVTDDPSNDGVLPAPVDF

[9] = target: Peroxisome proliferator-activated receptor gamma/Nuclear receptor coactivator 2 (Homo sapiens, UniProt P37231); assay: (§1) TR-FRET dose response biochemical High Throughput Screening assay for agonists of the steroid receptor coactivator 2 (SRC-2) recruitment by the peroxisome proliferator-activated receptor gamma (PPAR gamma): non-selective agonists. [Related pubchem assays: 1297, 1032 ]; type: functional
[10] = target: Peroxisome proliferator-activated receptor gamma/Nuclear receptor coactivator 1 (Homo sapiens, UniProt P37231); assay: as §1, with “1 (SRC-1)” for “2 (SRC-2)”, “assays (depositor defined):AID1300, AID1808, AID504735, AID631]” for “assays: 1297, 1032 ]”; type: protein assay
[11] = target: Peroxisome proliferator-activated receptor gamma/Nuclear receptor coactivator 3 (Homo sapiens, UniProt P37231); assay: as §1, with “3 (SRC-3)” for “2 (SRC-2)”, “1301 (Confirmation screen.), 1048 (Primary screen.)]” for “1297, 1032 ]”; type: functional

**Q.** Which results are given for `O=C1NC(=O)N(Cc2ccco2)C(=O)/C1=C/C=C/c1ccco1`?
**A.** EC50 (HEK293 [1]): > 20 µM (inactive); Absolute IC50 (CHOP) [2]: 10 µM; Absolute IC50 (XBP1) (X-box-binding protein 1): 10 µM; IC50 (HEK293 [3]): > 20 µM (inactive); IC50 (HEK293 [4]): > 20 µM (inactive); IC50 (HEK293 [5]): 16.2 µM (active)

**Q.** Which results are given for `COc1cc(S(=O)(=O)NCc2ccncc2)ccc1Br`?
**A.** EC50 (HEK293 [1]): 3.02 µM (active); IC50 (HEK293 [3]): > 20 µM (inactive); IC50 (HEK293 [4]): > 20 µM (inactive); IC50 (HEK293 [5]): 16.5 µM (active)

**Q.** Which EC50 (Ion channel NompC) does the source give for `C/C(=C1/C(=O)N(c2ccc([N+](=O)[O-])cc2)N=C1c1ccccc1)N(C)C` here?
**A.** The EC50 was 3.71 µM (active).

**Q.** What about the EC50 (Mucolipin-3) of the same compound?
**A.** The EC50 was 5.21 µM (active).

**Q.** And the CC50 [6]?
**A.** Its CC50 is 10.6 µM (active).

**Q.** What does the source list for `Clc1cccc(/N=c2\ssnc2Cl)c1`?
**A.** IC50 [7]: 51.1 µM (active); IC50 (Phosphomannomutase 2): > 100 µM (inactive)

**Q.** With `Cc1cccc(/C=N/NC(=O)C(C)Nc2cccc3ccccc23)n1` (stereo unspecified) as the compound, how does the EC50 (Troponin, cardiac muscle) read?
**A.** The EC50 was 10.5 µM (inactive).

**Q.** And the AC50 [8]?
**A.** Its AC50 is 3.78 µM (active).

**Q.** What about the EC50 (Protein RecA) of the same compound?
**A.** Its EC50 is 47.1 µM (active).

**Q.** What does the source list for `CSc1oc(-c2ccccc2)nc1C(N)=O`?
**A.** EC50 [9]: 60.1 µM (not active); EC50 [10]: 359 µM (inactive); EC50 [11]: > 79.4 µM (not active)
